The text below walks through data of patent publication US11725015B2, “Macrocyclic compound and uses thereof” (President and Fellows of Harvard College, priority 2017, dated 2023).

Test [1] concerns human breast cancer cell line HCC1954. Description: HCC1954 growth inhibition assay. Format: cell-based. The settings on record: 3 days incubation, CellTiter-Glo. How it is done: In this assay, the growth inhibitory activity of test compounds in a human breast cancer cell line HCC1954 was measured. HCC1954 cells were maintained in an RPMI-1640 medium modified to contain 2 mM L-glutamine, 10 mM HEPES, 1 mM sodium pyruvate, 4500 mg/L glucose, and 1500 mg/L sodium bicarbonate (ATCC 30-2001) containing 10% fetal bovine serum (FBS: Nichirei, 12D168), and penicillin and streptomycin in a 5% CO2 incubator (37° C.). To each well of a 96 well plate (Becton, Dickinson and Company, 353219), 75 μL of HCC1954 cell suspension adjusted to a concentration of 4×10^4 cells/mL with the culture medium was added, and the cells were incubated overnight in a 5% CO2 incubator (37° C.). On the next day, 25 μL of Compound (1) or Halichondrin B in three-fold dilution series suspended in the culture medium was added to each well, and the resultant was incubated for 3 days in a 5% CO2 incubator (37° C.). Then, cell viability was determined by CellTiter-Glo® Luminescent Cell Viability Assay (Promega) with EnVision 2103 Multilabel Reader (Perkin-Elmer, Wellesley, Mass.). Value of the wells containing cells without adding the test compounds was defined as 100% and the value of the wells containing no cells was defined as 0%. The concentration of the test compound necessary for inhibiting the cell growth by 50% (i.e., an IC50 value) was calculated, and shown in Table 3.

The test system of test [2] is HCC1806 subcutaneous xenograft. Briefly: Antitumor activity against HCC1806 subcutaneous xenograft model in mice as monotherapy. Format: in vivo. As to conditions: 0.18 mg/kg intravenously, Q7D×2. How it is done:
A human breast cancer cell line HCC1806, which had been cultured in an RPMI-1640 medium containing 10% FBS, and penicillin and streptomycin, was adjusted to a concentration of 1×10^8 cells/mL with PBS to prepare a cell suspension, and the suspension was mixed with Matrigel™ (BD Bioscience, #366237) in a ratio of 1:1 to prepare a cell suspension in a concentration of 5×10^7 cell/mL. The cell suspension was inoculated in a volume of 100 μL into a subcutaneous part of a right flank of nude mice, 5 weeks of ages (CAnN.Cg-Foxnlnu/CrlCrlj, female, Charles River Laboratories Japan, Inc.).
On the basis of the volumes of tumors obtained on the first day of administration, the mice were grouped such that averages of the tumor volumes were substantially equal among the groups. The experiment was conducted on groups each consisting of 6 mice. Test compound was dissolved in saline and intravenously administered at 0.18 mg/kg once a week for 2 weeks (Q7D×2 schedule).

In test [3] the test system is COLO-704 subcutaneous xenograft. Description: Antitumor effects in the COLO-704 xenograft model in mice as monotherapy. Format: in vivo. How it is done:
A human ovarian cancer cell line COLO-704, which had been cultured in a RPMI-1640 containing 10% FBS, and penicillin-streptomycin, was adjusted to a concentration of 1×10^8 cells/mL with Hanks' Balanced Salt Solution to prepare a cell suspension. The cell suspension was inoculated in a volume of 100 μL into a subcutaneous part of a right flank of nude mice, 5 weeks of ages (CAnN.Cg-Foxn1nu/CrlCrlj, female, Charles River Laboratories Japan Inc.). Nine days after cell inoculation (Day 1), the shortest diameter and the longest diameter of a tumor in each mouse were measured by using an electronic digital caliper (Digimatic™ caliper, Mitutoyo Corporation), so as to calculate the volume of the tumor in accordance with the following calculation formulae: Tumor volume (mm^3)=Longest diameter (mm)×Shortest diameter (mm)×Shortest diameter (mm)/2 Relative tumor volume (RTV)=Tumor volume (day X)/Tumor volume (the first day) Relative body weight (RBW)=Body weight (day X)/Body weight (the first day)
On the basis of the volumes of tumors obtained on Day 1, the mice were grouped such that averages of the tumor volumes were substantially equal among the groups. The experiment was conducted on groups each consisting of six mice. The test compound was dissolved in DMSO and a solution was stored in the freezer before use. Immediately before the administration, the stock solution was diluted with saline. The test compound in saline was intravenously once-weekly administered at 20 μg/kg, 60 μg/kg, or 180 μg/kg for 2 weeks (on Day 1 and Day 8).

Test [4] has as its system HT-1080 (human fibrosarcoma) xenograft. Description: Antitumor effects in HT-1080 soft tissue sarcoma xenograft model in mice as monotherapy. Format: in vivo. As to conditions: 180 μg/kg intravenously on Day 1 and Day 8. How it is done: A human fibrosarcoma cell line HT-1080, which had been cultured in an E-MEM containing 10% FBS, NEAA and antibiotics was adjusted to a concentration of 3×10^7 cells/mL with medium to prepare a cell suspension. The cell suspension was inoculated in a volume of 100 μL into a subcutaneous part of a right flank of athymic mice (CAnN.Cg-Foxnlnu/CrlCrlj, female, 6 weeks old, Charles River Japan Inc.). Six days after cell inoculation (Day 1), the length and the width of a tumor in each mouse were measured by using an electronic digital caliper (Mitutoyo Corporation), so as to calculate the volume of the tumor in accordance with the following calculation formula: Tumor volume (mm^3)=Longest diameter (mm)×Shortest diameter (mm)×Shortest diameter (mm)/2 Relative tumor volume (RTV)=Tumor volume (day X)/Tumor volume (the first day)
On the basis of TV, the mice were randomly grouped (Day 1). Each group was consisted in six mice. Compound (1) was dissolved in DMSO and a solution was stored in the freezer before use. Compound (1) (180 μg/kg) was diluted with saline and intravenously injected on Day 1 and Day 8.

SMILES strings stand for the structures.

In general, IC50 refers to the concentration that gives 50% inhibition. On to `C=C1C[C@@H]2CC[C@@]34C[C@H]5O[C@H]6[C@@H](O3)[C@H]3O[C@H](CC[C@@H]3O[C@H]6C5O4)CC(=O)O[C@@H]3[C@@H](C)[C@@H]4O[C@@H]5C[C@]6(C[C@@H]7O[C@]8(C[C@H](C)[C@@H]9O[C@H](CN)[C@H](O)C[C@@H]9O8)C[C@H](C)[C@@H]7O6)O[C@@H]5C[C@@H]4O[C@H]3C[C@H]3O[C@@H](CC[C@@H]1O2)C[C@@H](C)C3=C` [Compound (1)], for which, in test [1], half-maximal inhibition (IC50) was put at 0.0668 nM. Besides, the “Tumor Regression (%)” value in test [2] came to 90%. Moreover, the antitumor effect entry was “tumor growth delay” in test [3] (60 μg/kg intravenously on Day 1 and Day 8); “tumor regression” in test [3] (180 μg/kg intravenously on Day 1 and Day 8). Moreover, the “eradication of xenograft tumors” value in test [3] (180 μg/kg, on Day 22) is “completely eradicated the xenograft tumors in all mice”. Further, the antitumor activity entry in test [4] is reported as “tumor regression”.
